These results are taken from ChEMBL document CHEMBL5727699, “Pyrimido-pyridazinone compounds and methods of use thereof” (2020).

The test concerns the target Tyrosine-protein kinase JAK2 (Homo sapiens, UniProt O60674). In words: Thirteen μL of assay buffer in blank and substrate control wells and 13 μL of Enzyme buffer mix in positive and test wells was added. The reaction mixture was incubated for 30 minutes at RT on a plate shaker. […] The reaction plate was incubated for 60 minutes at RT on a plate shaker. The reaction was stopped by adding 40 mM EDTA (10 μL) in buffer. Ten μL of antibody was added to all the wells.

Where only a bound is given, the exact number is not on record here.

Sequence of Tyrosine-protein kinase JAK2 (O60674 whole entry): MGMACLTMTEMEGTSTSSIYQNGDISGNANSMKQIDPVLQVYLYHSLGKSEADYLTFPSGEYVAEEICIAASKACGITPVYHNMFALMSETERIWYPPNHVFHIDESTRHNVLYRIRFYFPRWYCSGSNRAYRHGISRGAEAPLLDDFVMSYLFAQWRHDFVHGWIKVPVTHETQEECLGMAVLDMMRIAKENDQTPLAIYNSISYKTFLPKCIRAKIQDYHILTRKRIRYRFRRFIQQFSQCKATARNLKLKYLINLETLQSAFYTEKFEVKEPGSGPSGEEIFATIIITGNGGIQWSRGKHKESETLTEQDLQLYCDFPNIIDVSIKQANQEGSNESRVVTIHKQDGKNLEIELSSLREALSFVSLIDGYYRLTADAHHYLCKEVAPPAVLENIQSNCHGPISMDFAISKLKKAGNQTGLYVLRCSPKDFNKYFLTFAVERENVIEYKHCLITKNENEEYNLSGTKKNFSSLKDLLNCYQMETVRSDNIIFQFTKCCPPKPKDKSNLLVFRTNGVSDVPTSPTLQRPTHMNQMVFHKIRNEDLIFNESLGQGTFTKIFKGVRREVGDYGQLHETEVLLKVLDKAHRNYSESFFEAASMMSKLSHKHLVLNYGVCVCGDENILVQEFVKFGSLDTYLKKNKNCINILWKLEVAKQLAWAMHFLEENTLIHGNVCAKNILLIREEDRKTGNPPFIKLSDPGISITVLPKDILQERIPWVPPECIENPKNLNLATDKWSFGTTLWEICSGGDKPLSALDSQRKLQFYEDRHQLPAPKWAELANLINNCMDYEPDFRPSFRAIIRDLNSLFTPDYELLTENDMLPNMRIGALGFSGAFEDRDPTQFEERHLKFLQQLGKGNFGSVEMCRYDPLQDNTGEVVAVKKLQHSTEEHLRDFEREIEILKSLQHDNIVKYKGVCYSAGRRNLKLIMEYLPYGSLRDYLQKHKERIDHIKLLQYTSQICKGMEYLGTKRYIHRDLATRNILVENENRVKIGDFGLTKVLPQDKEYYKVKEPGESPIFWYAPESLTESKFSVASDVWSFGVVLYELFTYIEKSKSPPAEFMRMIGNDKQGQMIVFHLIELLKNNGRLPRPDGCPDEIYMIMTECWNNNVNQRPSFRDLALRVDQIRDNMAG

As for `CC(C)(C#N)N1CCN(c2ccc(Nc3nc(N4CCCCCC4)nc4cn[nH]c(=O)c34)cc2)CC1`, the IC50 was over 100 nM.
